One data set addresses T1, hA2A (Homo sapiens, UniProt P29274).
T1 construct: expressed in transfected cells; host or cells: CHO cells (stably transfected)
The data set can be described thus: Radioligand competition binding, [3H]NECA, hA2A in CHO cells. The following applies: [3H]NECA 10 nM. The procedure:
(§1) (5′-N-ethylcarboxamidoadenosine) to hA2A; and specific binding of [^3H]HEMADO (2-(1-hexynyl)-N^6-methyladenosine) to hA3. […] Due to the lack of a suitable radioligand for the hA2B receptor, the potency of antagonists at the hA2B receptor was determined by inhibition of NECA-stimulated adenylyl cyclase activity with increasing concentrations of antagonist.
(§2) The binding affinity for hA1, hA2A, hA3 of the synthetized compounds was evaluated using radioligand competition experiments in CHO cells that were stably transfected with the individual receptor subtypes. […] Due to the lack of a suitable radioligand for the hA2B receptor, the potency of antagonists at the hA2B receptor (expressed on CHO cells) was determined by inhibition of NECA-stimulated adenylyl cyclase activity. The IC50 for inhibition of cAMP (cyclic adenosine monophosphate) production was determined and converted to Ki values using the Cheng and Prusoff equation [56].
(§3) Ki values (dissociation constants) were determined in radioligand competition experiments with 7–8 different concentrations of test compound and each concentration was tested in duplicate. […] The program Prism 6 (GraphPad Software) was used for the analysis of the competition curves.
(In general: Loss of bound radioactivity is the signal in a displacement assay; it reports binding, not function.)

Data set [1] has as its target T2, hA3 (Homo sapiens, UniProt P0DMS8).
T2 construct: expressed in transfected cells; host or cells: CHO cells (stably transfected)
T2 sequence (P0DMS8 1-318): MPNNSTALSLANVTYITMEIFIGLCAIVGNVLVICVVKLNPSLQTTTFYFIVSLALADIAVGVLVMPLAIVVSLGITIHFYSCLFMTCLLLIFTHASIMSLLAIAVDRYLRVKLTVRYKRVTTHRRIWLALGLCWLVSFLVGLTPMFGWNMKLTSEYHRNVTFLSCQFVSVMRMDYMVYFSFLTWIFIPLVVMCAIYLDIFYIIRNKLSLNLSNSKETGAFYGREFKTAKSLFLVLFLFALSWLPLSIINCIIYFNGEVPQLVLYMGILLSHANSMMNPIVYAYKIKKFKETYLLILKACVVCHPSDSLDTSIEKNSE
Briefly: Radioligand competition binding, [3H]HEMADO, hA3 in CHO cells. The note with it: [3H]HEMADO 1 nM, geometric mean of 3 experiments (95% CI). The procedure: as §1, §2, §3

The target in the next data set is hA1 (Homo sapiens, UniProt P30542). The data set can be described thus: biochemical. The protocol: as §1, §2, §3
Chain of hA1 (P30542 whole entry): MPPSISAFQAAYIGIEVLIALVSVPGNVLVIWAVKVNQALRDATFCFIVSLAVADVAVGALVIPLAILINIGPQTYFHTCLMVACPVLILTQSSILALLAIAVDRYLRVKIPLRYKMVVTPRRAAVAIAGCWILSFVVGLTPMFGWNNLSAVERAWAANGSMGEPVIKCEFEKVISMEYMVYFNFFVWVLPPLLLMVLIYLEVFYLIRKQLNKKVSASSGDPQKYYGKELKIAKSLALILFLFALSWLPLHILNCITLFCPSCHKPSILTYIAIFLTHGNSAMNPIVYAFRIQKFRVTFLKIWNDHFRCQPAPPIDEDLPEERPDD
For data set [2], the target named is T2, hA3. The following applies: radioligand used at 1 nM; ref [44],[45]; cited from earlier work.

T1 sequence (P29274 whole entry): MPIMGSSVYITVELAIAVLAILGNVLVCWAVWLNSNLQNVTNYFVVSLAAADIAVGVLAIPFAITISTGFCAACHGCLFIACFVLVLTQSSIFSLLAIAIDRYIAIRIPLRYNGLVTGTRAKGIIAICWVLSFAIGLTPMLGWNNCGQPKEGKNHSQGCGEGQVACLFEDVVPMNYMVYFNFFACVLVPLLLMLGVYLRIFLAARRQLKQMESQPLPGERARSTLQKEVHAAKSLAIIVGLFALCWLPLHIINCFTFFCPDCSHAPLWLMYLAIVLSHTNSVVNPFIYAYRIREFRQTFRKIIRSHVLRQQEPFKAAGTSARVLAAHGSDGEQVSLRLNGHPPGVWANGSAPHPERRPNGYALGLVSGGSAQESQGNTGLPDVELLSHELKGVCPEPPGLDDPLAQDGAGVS

A word on the Ki: it is the equilibrium dissociation constant of an inhibitor or competing ligand from its target. Lower therefore signals tighter binding. As a reminder, the melting point is the temperature, or range, at which the solid turns liquid. As to `COc1ccc(C(=O)c2cc3ccccc3oc2=O)cc1OC` [Compound 1, 3-(3′,4′-Dimethoxybenzoyl)coumarin], the melting point fell in the range of 190 to 191 °C. Moreover, the Ki on hA2A is > 100 µM. Moreover, the Ki on hA3 [1] was > 100 µM. Further, the Ki at hA1 is > 100 µM.

Compound `COc1ccc2oc(=O)c(C(=O)c3ccc(OC)c(OC)c3)cc2c1` [Compound 2, 6-Methoxy-3-(3′,4′-dimethoxybenzoyl)coumarin] displayed a melting point of 202 to 203 °C. In addition, the Ki on hA2A is > 100 µM. For the same compound, the inhibition constant (Ki) on hA3 [1] was > 100 µM. Besides, the Ki on hA1 is > 100 µM.

`COc1cc(OC)c2cc(C(=O)c3ccc(OC)c(OC)c3)c(=O)oc2c1` [Compound 3, 5,7-Dimethoxy-3-(3′,4′-dimethoxybenzoyl)coumarin] returned a melting point of 210 to 211 °C. The same compound showed an inhibition constant (Ki) at hA3 [1] of 9.03 µM. Also, the Ki on hA1 is > 30 µM.

Consider `COc1ccc(C(=O)c2cc3c(OC)cc(OC)cc3oc2=O)cc1` [Compound 4, 5,7-Dimethoxy-3-(4′-methoxybenzoyl)coumarin], for which the melting point is 174 to 175 °C. For the same compound, the inhibition constant Ki at hA3 [1] stood at 2.49 µM. Further, at hA1, the inhibition constant Ki is > 100 µM.

In the case of `O=C(c1ccc(O)c(O)c1)c1cc2ccccc2oc1=O` [Compound 5], the inhibition constant (Ki) is 34.5 µM at hA3 [1] and 39.5 µM at hA1.

Turning to `O=C(c1ccc(O)c(O)c1)c1cc2cc(O)ccc2oc1=O` [Compound 6], the Ki on hA3 [1] is > 60 µM; at hA1, 54 µM.

Take `O=C(c1ccc(O)c(O)c1)c1cc2c(O)cc(O)cc2oc1=O` [Compound 7]: the Ki was > 30 µM on hA3 [1] and 17.7 µM at hA1.

`O=C(c1ccc(O)cc1)c1cc2c(O)cc(O)cc2oc1=O` [Compound 8, 5,7-Dihydroxy-3-(4′-hydroxybenzoyl)coumarin] had a melting point of 290 to 292 °C. Besides, the inhibition constant Ki on hA3 [1] was > 60 µM. At hA1, this compound returned an inhibitory constant (Ki) of 29.1 µM.

One may read the Kd as a measure of binding affinity in units of concentration. Consider `CCCCC#Cc1nc(NC)c2ncn([C@@H]3O[C@H](CO)[C@@H](O)[C@H]3O)c2n1` [[^3H]HEMADO, 2-(1-hexynyl)-N^6-methyladenosine], for which the dissociation constant (Kd) at hA3 [2] was 0.0012 µM.

The record behind these values is PMC7571217, “Adenosine Receptor Ligands: Coumarin–Chalcone Hybrids as Modulating Agents on the Activity of hARs” (Molecules, 2020).
